The numbers were not newly measured in patent US12414956B2, “Method for smoking cessation” (CALISTA CAPITAL, LLC, priority 2017, dated 2025), which cites them from elsewhere.

Structures are written as SMILES. Where two headings read alike, the source gives them in different places.

A word on the AUC: it is concentration integrated over time. The Cmax is the maximum level reached in the sampled fluid or tissue.

For series [1] the following is noted: after six months, clinical trials.
The conditions of series [2]: mean, capsules, adult subjects, plasma.

For the compound `c1cnc2cc3c(cc2n1)[C@@H]1CNC[C@H]3C1` [CHANTIX, varenicline], the success rate in series [1] was 14%.

Take `C=CC1=C(C(=O)O)N2C(=O)[C@@H](NC(=O)/C(=N\O)c3csc(N)n3)[C@H]2SC1` [Cefdinir, cefdinir]: in series [2] (single 300 mg oral dose), the AUC was 7050 ng·h/mL, the peak concentration (Cmax) is 1600 ng/mL and the tmax is 2.9 h. Moreover, in series [2] (single 600 mg oral dose), the AUC is 11100 ng·h/mL, the Cmax was 2870 ng/mL and the tmax is 3.0 h.
